# ChEMBL document CHEMBL4321872, “Engineering a Potent, Long-Acting, and Periphery-Restricted Oxytocin Receptor Agonist with Anorexigenic and Body Weight Reducing Effects” (J Med Chem, 2020)
# Calls of active or inactive are those of the source. The calls are words filed in the database; no cut-off is given here. Numbered stars: 1 amine (or outer) side, 2 acyl side, 3 side chain; on linkers, the order of the positions; unused ones are H or OH. Bridge positions count the residues as written; N and C are the ends. Square brackets hold non-standard residues; d marks the D form. Side chains are listed from the residue outwards. Peptide text beside a SMILES is read from it. * marks the point of attachment. X1 = O=C(O)CCCCCCCCCCCCCCCCC(=O)N[C@@H](CCCCNC(=O)CCOCCOCCNC(=O)CCOCCOCCNC(=O)C*)C(=O)O; X4 = O=C(O)CCCCCCCCCCCCCCCCC(=O)NCCOCCOCCOCCNC(=O)C*; PEG8 = NCCOCCOCCOCCOCCOCCOCCOCCOCCC(=O)O; X3 = CCCCCCCCCCCCCC(=O)NCCOCCOCCNC(=O)C*; Palmitoyl = CCCCCCCCCCCCCCCC(=O)*; X2 = O=C(CCC[*:2])[*:1]; Sar = CNCC(=O)O; Cam = NC(=O)C*
# Legend:
# [1] = Half life in C57BL/6J mouse at 20 mg/kg, sc by LC-MS/MS analysis; type: ADME, organism-based; settings: in vivo
# Oxytocin receptor [2] = target: T1, Oxytocin receptor (Homo sapiens, UniProt P30559); test: Agonist activity at recombinant human Gi/Go-coupled OTR expressed in CHOK1 cells assessed as induction of beta-arrestin recruitment measured after 90 mins in presence of 10% FBS by pathhunter assay; type: cell-based
# T1 sequence (P30559 whole entry): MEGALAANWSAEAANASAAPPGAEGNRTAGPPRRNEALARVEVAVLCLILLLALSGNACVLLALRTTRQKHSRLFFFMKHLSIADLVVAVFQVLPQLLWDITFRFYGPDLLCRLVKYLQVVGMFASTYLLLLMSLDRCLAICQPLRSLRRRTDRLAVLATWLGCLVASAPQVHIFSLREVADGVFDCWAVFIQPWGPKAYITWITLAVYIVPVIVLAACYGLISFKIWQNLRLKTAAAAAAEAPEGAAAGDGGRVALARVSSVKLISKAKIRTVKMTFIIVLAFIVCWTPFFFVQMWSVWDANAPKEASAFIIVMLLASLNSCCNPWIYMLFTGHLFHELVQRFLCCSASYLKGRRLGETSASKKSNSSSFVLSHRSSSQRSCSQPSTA
# [3] = target: T2, Oxytocin receptor (Homo sapiens) (UniProt P30559); test: Agonist activity at recombinant human Gi/Go-coupled OTR expressed in CHOK1 cells assessed as induction of beta-arrestin recruitment measured after 90 mins in presence of 10% FBS by pathhunter assay relative to oxytocin; type: cell-based
# T2 sequence (whole entry): T1 sequence (P30559 whole entry)
# Oxytocin receptor [4] = target: T1, Oxytocin receptor; test: Agonist activity at recombinant human Gi/Go-coupled OTR expressed in CHOK1 cells assessed as induction of beta-arrestin recruitment measured after 90 mins in absence of 10% FBS by pathhunter assay; type: cell-based
# [5] = target: T2, Oxytocin receptor (Homo sapiens); test: Agonist activity at recombinant human Gi/Go-coupled OTR expressed in CHOK1 cells assessed as induction of beta-arrestin recruitment measured after 90 mins in absence of 10% FBS by pathhunter assay relative to oxytocin; type: cell-based
# [6] = target: T2, Oxytocin receptor (Homo sapiens); test: Ratio of EC50 for agonist activity at recombinant human Gi/Go-coupled OTR expressed in CHOK1 cells in presence of 10% FBS to EC50 for agonist activity at recombinant human Gi/Go-coupled OTR expressed in CHOK1 cells in absence of 10% FBS; type: cell-based
# [7] = Aqueous solubility of the compound; type: physicochemical; settings: buffer
# Vasopressin V2 receptor = Vasopressin V2 receptor (Homo sapiens, UniProt P30518); test: Agonist activity at recombinant human V2 receptor expressed in CHOK1 cells assessed as increase in cAMP level measured after 30 mins by HTRF assay; type: cell-based
# [8] = Tmax in C57BL/6 mouse plasma at 1 mg/kg, sc by LC-MS analysis; type: ADME, organism-based
# [9] = Terminal half life in C57BL/6 mouse plasma at 1 mg/kg, sc by LC-MS analysis; type: ADME, organism-based; settings: read-out: beta t1/2 (converted)
# [10] = Cmax in C57BL/6 mouse plasma at 1 mg/kg, sc by LC-MS analysis; type: ADME, organism-based; set-up: dose 1 mg/kg, route subcutaneous
# [11] = AUC (0 to last) in C57BL/6 mouse plasma at 1 mg/kg, sc by LC-MS analysis; type: ADME, organism-based; set-up: dose 1 mg/kg, time 0 - last, route subcutaneous
# [12] = Drug level in C57BL/6 mouse at 1 mg/kg, sc measured after 24 hrs by LC-MS analysis; type: ADME, organism-based; settings: in vivo, read-out: Drug uptake
# [13] = Ratio of drug level in brain to plasma in C57BL/6 mouse at 1 mg/kg, sc measured after 7 hrs by LC-MS analysis; type: ADME, organism-based; settings: read-out: BPR
# Mus musculus [14] = test: Anorexigenic activity in C57BL/6J mouse assessed as reduction in food intake at 0.1 mg/kg, sc measured at 3 hrs interval for 24 hrs; type: functional, organism-based
# Mus musculus [15] = test: Anorexigenic activity in C57BL/6J mouse assessed as reduction in body weight at 0.1 mg/kg, sc measured daily for 2 days; type: functional, organism-based
# Mus musculus [16] = test: Anorexigenic activity in sc dosed C57BL/6J mouse […] model assessed as reduction in food intake administered once daily for 9 days and measured daily during compound dosing; type: functional, organism-based
# Mus musculus [17] = test: Anorexigenic activity in sc dosed C57BL/6J mouse […] model assessed as reduction in body weight administered once daily for 9 days and measured daily during compound dosing; type: functional, organism-based
# Mus musculus [18] = test: Anorexigenic activity in C57BL/6J mouse assessed as reduction in food intake at 0.5 mg/kg, sc measured at 3 hrs interval for 6 hrs; type: functional, organism-based
# Mus musculus [19] = test: Anorexigenic activity in C57BL/6J mouse assessed as reduction in food intake at 0.5 mg/kg, sc measured at 24 hrs post-dose; type: functional, organism-based
# Mus musculus [20] = test: Anorexigenic activity in C57BL/6J mouse assessed as reduction in body weight at 0.5 mg/kg, sc measured daily for 2 days; type: functional, organism-based
# Mus musculus [21] = test: Anorexigenic activity in C57BL/6J mouse […] model assessed as reduction in food intake at 0.1 mg/kg, sc administered once daily for 9 days and measured daily during compound dosing; type: functional, organism-based
# Mus musculus [22] = test: Anorexigenic activity in C57BL/6J mouse […] model assessed as reduction in body weight at 0.1 mg/kg, sc administered once daily for 9 days and measured daily during compound dosing; type: functional, organism-based
# [23] = Half life in C57BL/6J mouse; type: ADME; settings: in vivo
# Sequence of Vasopressin V2 receptor (P30518 whole entry): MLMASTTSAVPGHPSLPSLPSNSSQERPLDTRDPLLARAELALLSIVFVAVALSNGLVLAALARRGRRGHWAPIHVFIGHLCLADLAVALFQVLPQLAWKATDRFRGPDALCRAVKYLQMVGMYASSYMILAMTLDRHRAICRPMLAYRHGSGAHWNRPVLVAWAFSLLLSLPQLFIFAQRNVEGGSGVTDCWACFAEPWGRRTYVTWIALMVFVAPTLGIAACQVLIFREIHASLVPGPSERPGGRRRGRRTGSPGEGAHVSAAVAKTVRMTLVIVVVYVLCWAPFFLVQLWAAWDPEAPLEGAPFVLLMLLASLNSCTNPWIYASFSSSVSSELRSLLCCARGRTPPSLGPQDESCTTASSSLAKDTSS
SMILES,EC50 (Oxytocin receptor [2]) [nM],%max [3] [%],EC50 (Oxytocin receptor [4]) [nM],%max [5] [%],Ratio EC50 [6],also measured
CCCCCCCCCCCCCCCC(=O)NCCOCCOCCOCCOCCOCCOCCOCCOCCC(=O)NCCCC[C@H](NC(=O)CNC(=O)[C@@H]1CSSC[C@H](N)C(=O)N[C@@H](Cc2ccc(O)cc2)C(=O)N[C@@H]([C@@H](C)CC)C(=O)N[C@@H](CCC(N)=O)C(=O)N[C@@H](CC(N)=O)C(=O)N1)C(=O)NCC(N)=O (H-CYIQNCGK([PEG8-Palmitoyl])G-NH2; disulfide 1-6),,,,,,half-life [1]: 20 h
CC(C)C[C@H](NC(=O)[C@@H]1CCCN1C(=O)[C@@H]1CSCCCC(=O)N[C@@H](Cc2ccc(O)cc2)C(=O)N[C@@H](CSCC(N)=O)C(=O)N[C@@H](CCC(N)=O)C(=O)N[C@@H](CC(N)=O)C(=O)N1)C(=O)NCC(N)=O (YC(Cam)QNCPLG-NH2; linker N-5 via X2),> 1000,2,,,,
CCCCCCCCCCCCCC(=O)NCCOCCOCCNC(=O)CSC[C@@H]1NC(=O)[C@H](Cc2ccc(O)cc2)NC(=O)CCCSC[C@@H](C(=O)N2CCC[C@H]2C(=O)N[C@@H](CC(C)C)C(=O)NCC(N)=O)NC(=O)[C@H](CC(N)=O)NC(=O)[C@H](CCC(N)=O)NC1=O (YC(X3)QNCPLG-NH2; linker N-5 via X2),> 1000,2.3,,,,
CC[C@H](C)[C@@H]1NC(=O)[C@H](Cc2ccc(O)cc2)NC(=O)CCCSC[C@@H](C(=O)N2CCC[C@H]2C(=O)N[C@@H](CC(C)C)C(=O)NCC(N)=O)NC(=O)[C@H](CC(N)=O)NC(=O)[C@H](CSCC(N)=O)NC1=O (YIC(Cam)NCPLG-NH2; linker N-5 via X2),14.4,47,,,,
CCCCCCCCCCCCCC(=O)NCCOCCOCCNC(=O)CSC[C@@H]1NC(=O)[C@H]([C@@H](C)CC)NC(=O)[C@H](Cc2ccc(O)cc2)NC(=O)CCCSC[C@@H](C(=O)N2CCC[C@H]2C(=O)N[C@@H](CC(C)C)C(=O)NCC(N)=O)NC(=O)[C@H](CC(N)=O)NC1=O (YIC(X3)NCPLG-NH2; linker N-5 via X2),> 1000,5.8,,,,
CC[C@H](C)[C@@H]1NC(=O)[C@H](Cc2ccc(O)cc2)NC(=O)CCCSC[C@@H](C(=O)NCC(=O)N[C@@H](CSCC(=O)NCCOCCOCCC(=O)NCCOCCOCCC(=O)NCCCC[C@H](NC(=O)CCCCCCCCCCCCCCCCC(=O)O)C(=O)O)C(=O)NCC(N)=O)NC(=O)[C@H](CC(N)=O)NC(=O)[C@H](CCC(N)=O)NC1=O (YIQNCGC(X1)G-NH2; linker N-5 via X2),193,,2.58,125,74.7,solubility [7]: Soluble; EC50 (Vasopressin V2 receptor): 1800 nM; Tmax [8]: 7 h; half-life [9]: 24.2 h; Cmax [10]: 9110 ng/mL; AUC(0-t) [11]: 350 µg·h/mL; concentration at 24 h [12]: > 850 nM; Kp at 7 h [13]: 0.005; Activity (Mus musculus [14]): Active; Activity (Mus musculus [15]): Active; Activity (Mus musculus [16]): Dose-dependent effect; Activity (Mus musculus [17]): Dose-dependent effect
CC[C@H](C)[C@@H]1NC(=O)[C@H](Cc2ccc(O)cc2)NC(=O)CCCSC[C@@H](C(=O)NCC(=O)N[C@@H](CSCC(=O)NCCOCCOCCC(=O)NCCOCCOCCC(=O)NCCCC[C@H](NC(=O)CCCCCCCCCCCCCCCCC(=O)O)C(=O)O)C(=O)N(C)CC(N)=O)NC(=O)[C@H](CC(N)=O)NC(=O)[C@H](CCC(N)=O)NC1=O (YIQNCGC(X1)[Sar]-NH2; linker N-5 via X2),464,,65.5,50,7.08,
CCCCCCCCCCCCCC(=O)NCCOCCOCCNC(=O)CSC[C@H](NC(=O)CNC(=O)[C@@H]1CSCCCC(=O)N[C@@H](Cc2ccc(O)cc2)C(=O)N[C@@H]([C@@H](C)CC)C(=O)N[C@@H](CCC(N)=O)C(=O)N[C@@H](CC(N)=O)C(=O)N1)C(=O)NCC(N)=O (YIQNCGC(X3)G-NH2; linker N-5 via X2),18.9,,5.27,116,3.6,solubility [7]: Soluble
CCCCCCCCCCCCCC(=O)NCCOCCOCCNC(=O)CSC[C@H](NC(=O)CNC(=O)[C@@H]1CSCCCC(=O)N[C@@H](Cc2ccc(O)cc2)C(=O)N[C@@H]([C@@H](C)CC)C(=O)N[C@@H](CCC(N)=O)C(=O)N[C@@H](CC(N)=O)C(=O)N1)C(=O)N(C)CC(N)=O (YIQNCGC(X3)[Sar]-NH2; linker N-5 via X2),56.9,,10.5,57,5.4,
CC[C@H](C)[C@@H]1NC(=O)[C@H](Cc2ccc(O)cc2)NC(=O)CCCSC[C@@H](C(=O)NCC(=O)N[C@@H](CSCC(=O)NCCOCCOCCOCCNC(=O)CCCCCCCCCCCCCCCCC(=O)O)C(=O)NCC(N)=O)NC(=O)[C@H](CC(N)=O)NC(=O)[C@H](CCC(N)=O)NC1=O (YIQNCGC(X4)G-NH2; linker N-5 via X2),173,,3.41,117,50.9,solubility [7]: Soluble
CC[C@H](C)[C@@H]1NC(=O)[C@H](Cc2ccc(O)cc2)NC(=O)CCCSC[C@@H](C(=O)NCC(=O)N[C@@H](CSCC(=O)NCCOCCOCCOCCNC(=O)CCCCCCCCCCCCCCCCC(=O)O)C(=O)N(C)CC(N)=O)NC(=O)[C@H](CC(N)=O)NC(=O)[C@H](CCC(N)=O)NC1=O (YIQNCGC(X4)[Sar]-NH2; linker N-5 via X2),831,,52.4,34,15.9,
CC[C@H](C)[C@@H]1NC(=O)[C@H](Cc2ccc(O)cc2)NC(=O)CCCSC[C@@H](C(=O)N2CCC[C@H]2C(=O)N[C@@H](CSCC(N)=O)C(=O)NCC(N)=O)NC(=O)[C@H](CC(N)=O)NC(=O)[C@H](CCC(N)=O)NC1=O (YIQNCPC(Cam)G-NH2; linker N-5 via X2),4.8,97,,,,
CCCCCCCCCCCCCC(=O)NCCOCCOCCNC(=O)CSC[C@H](NC(=O)[C@@H]1CCCN1C(=O)[C@@H]1CSCCCC(=O)N[C@@H](Cc2ccc(O)cc2)C(=O)N[C@@H]([C@@H](C)CC)C(=O)N[C@@H](CCC(N)=O)C(=O)N[C@@H](CC(N)=O)C(=O)N1)C(=O)NCC(N)=O (YIQNCPC(X3)G-NH2; linker N-5 via X2),5.28,70,,,,
CC[C@H](C)[C@@H]1NC(=O)[C@H](Cc2ccc(OC)cc2)NC(=O)CCCSC[C@@H](C(=O)N2CCC[C@H]2C(=O)N[C@@H](CC(C)C)C(=O)NCC(N)=O)NC(=O)[C@H](CC(N)=O)NC(=O)[C@H](CCC(N)=O)NC1=O [CARBETOCIN] (Y(Me)IQNCPLG-NH2; linker N-5 via X2),,,,,,Activity (Mus musculus [18]): Active; Activity (Mus musculus [19]): inactive; Activity (Mus musculus [20]): inactive; Activity (Mus musculus [21]): Active; Activity (Mus musculus [22]): Active; half-life [23]: 0.667 h
CC[C@H](C)[C@@H]1NC(=O)[C@H](Cc2ccc(O)cc2)NC(=O)[C@@H](N)CSSC[C@@H](C(=O)N2CCC[C@H]2C(=O)N[C@@H](CC(C)C)C(=O)NCC(N)=O)NC(=O)[C@H](CC(N)=O)NC(=O)[C@H](CCC(N)=O)NC1=O [OXYTOCIN],,,,,,half-life [23]: 0.0333 to 0.05 h
